Data on 1 compound can be found in patent US20220296573A1, “NOVEL COMPOUNDS AND PHARMACEUTICAL COMPOSITIONS THEREOF FOR THE TREATMENT OF INFLAMMATORY DISORDERS” (Galapagos NV, priority 2019, published 2022).

Common to all, as to assay type: cell-based
Test [1] deals with IL-1β driven NFκB-reporter activity. Kind of test: THP1-Lucia NFκB reporter assay, IL-1β trigger. As to conditions: THP-1-Lucia NFκB cells, IL-1β 3 ng/mL, 24 h; read-out: average pEC50, IL-1β driven NFκB-reporter activity (converted). An excerpt:
(§1) This assay is used to evaluate the IRAK4 selectivity and potency of the compounds of the invention upon IRAK4 dependent (LPS and IL-1β) and independent triggering (TNFα), in a THP1-Lucia NFκB reporter assay.
(§2) THP-1-Lucia NFκB cells (Invivogen—5, rue Jean Rodier 31400 Toulouse France—cat #thp1-nfkb) were cultivated as recommended by the supplier using split cycles each cycle comprising a succession of thawing/expansion/seeding. The data reported were generated using cells having between 3 to 9 cycles. On the day of the experiment THP-1-Lucia NFκB cells were counted and seeded at a density of 1,000,000 cells/mL in culture medium (RPMI 1640 (Gibco, Cat #52400-025)+10% FBS (Sigma, Cat #F7524-500ML)+1% P/S (Gibco, Cat #15140-122)) by pipetting 54 μL/well in a 384 well plate. […]
(§3) For the readout, supernatant samples were thawed on ice and 5 μL sample was transferred from each well to a new 384-well plate. 20 μL of Quanti-Luc solution (Quanti-Luc powder (Invivogen, Cat #rep-qlc1) dissolved in 25 mL sterile water as indicated by the manufacturer) was added to each well after which luminescence was immediately measured on an Envision instrument.
(§4) To measure the inhibition of LPS/TNFα/IL-1β-induced NFκB-reporter activity, percentage inhibition (PIN) values were calculated for all concentrations tested, compared to controls. […]
(In general: In a reporter assay the amount or activity of a reporter protein is the signal.)

For test [2], the system named is LPS driven NFκB-reporter activity. The test is described as follows: THP1-Lucia NFκB reporter assay, LPS trigger. Conditions: THP-1-Lucia NFκB cells, LPS 2.5 ng/mL, 24 h; read-out: average pEC50, LPS driven NFκB-reporter activity (converted).
Text: as §1, §2, §3, §4

For test [3], the system named is TNFα mediated NFκB-reporter activity. Kind of test: THP1-Lucia NFκB reporter assay, TNFα trigger. Conditions: THP-1-Lucia NFκB cells, TNFα 10 ng/mL, 24 h.
Text: as §1, §2, §3, §4

`COc1cc2nc(C3COCCO3)cn2cc1NC(=O)c1cccn(C2CC2)c1=O` (racemic) [Compound 1, 1-cyclopropyl-N-[2-(1,4-dioxan-2-yl)-7-methoxy-imidazo[1,2-a]pyridin-6-yl]-2-oxo-pyridine-3-carboxamide]: the figures for the EC50 in test [1] and in test [2] were 39.8 nM and 617 nM, respectively. Moreover, the “activity on TNFα mediated NFκB-reporter activity” value in test [3] is “no activity was observed”.
